Our source for the IC50 values is patent US20260070945A1, “MACROCYCLIC IMMUNOMODULATORS” (Bristol-Myers Squibb Company, priority 2022, published 2026).

Where a SMILES comes first, the peptide text is derived from it. Bridges are numbered along the chain shown (N, C = ends). [ ]: non-standard residue; d: D form. The star is where a group is joined. Bip = N[C@@H](Cc1ccc(-c2ccccc2)cc1)C(=O)O; Phe(3-Me) = Cc1cccc(C[C@H](N)C(=O)O)c1; 4Pal = N[C@@H](Cc1ccncc1)C(=O)O; Cha = N[C@@H](CC1CCCCC1)C(=O)O; Carboxymethyl = O=C(O)C*; NMeA = CN[C@@H](C)C(=O)O; Orn = NCCC[C@H](N)C(=O)O; Aun = NCCCCCCCCCCC(=O)O; Dab = NCC[C@H](N)C(=O)O; AEEA = NCCOCCOCC(=O)O

The target of this test is T1, PD-1/PD-L1 interaction (PE-labeled human PD-L1-Ig binding to Jurkat cell line over-expressing human PD-1) (Homo sapiens, UniProt Q15116).
T1 construct: expressed in transfected cells; host or cells: Jurkat
T1 sequence (Q15116 25-288): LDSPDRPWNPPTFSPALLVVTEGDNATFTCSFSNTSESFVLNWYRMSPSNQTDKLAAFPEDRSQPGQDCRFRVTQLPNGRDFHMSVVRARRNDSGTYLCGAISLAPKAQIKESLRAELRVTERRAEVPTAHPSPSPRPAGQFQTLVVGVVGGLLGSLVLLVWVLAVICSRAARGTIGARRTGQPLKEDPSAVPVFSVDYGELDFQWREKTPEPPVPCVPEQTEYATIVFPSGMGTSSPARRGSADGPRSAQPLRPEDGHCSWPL
In words: Jurkat-PD-1 Cell Binding High-Content Screening Assay (CBA). Conditions: Jurkat-hPD-1 cells, PE-labeled PD-L1-Ig 20 nM final; read-out: Jurkat HPD1 PDL1 IC50. In short, it runs like this: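 Read-out: high-content imaging of cell-bound PE fluorescence, with Hoechst 33342 nuclear counterstain after paraformaldehyde fixation. Before labeled ligand (20 nM final, 1 h) was added, compound sat on the cells for 2 h at 37 °C in DMEM/10% FCS.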
As for `Cc1cccc(C[C@@H]2NC(=O)[C@H](CC(=O)O)NC(=O)[C@H](Cc3ccncc3)NC(=O)[C@H](Cc3ccc(OCC(=O)O)cc3)NC(=O)CSC[C@@H](C(=O)N[C@@H](CCCN)C(=O)NCCOCCOCC(=O)NCCCCCCCCCCC(=O)O)NC(=O)[C@H]([C@@H](C)O)NC(=O)[C@H](C(C)C)NC(=O)[C@H](CC3CCCCC3)NC(=O)[C@H](CCN)NC(=O)[C@@H](CC(C)C)NC(=O)[C@H](C)N(C)C(=O)[C@H](Cc3ccc(OCC(=O)O)cc3)NC(=O)[C@H](Cc3ccc(-c4ccccc4)cc3)NC(=O)[C@H](Cc3ccc(OCC(=O)O)cc3)NC2=O)c1` [Example 1361] ({CH2CO}-Y(Carboxymethyl)[4Pal]D[Phe(3-Me)]Y(Carboxymethyl)[Bip]Y(Carboxymethyl)[NMeA][dL][Dab][Cha]VTC[Orn][AEEA][Aun]-OH; thioether N-14), the concentration for half-maximal inhibition (IC50) amounted to 16.1 nM.
Next, `Cc1cccc(C[C@@H]2NC(=O)[C@H](CC(=O)O)NC(=O)[C@H](Cc3ccc(OCC(=O)O)cc3)NC(=O)[C@H]([C@@H](C)O)NC(=O)CSC[C@@H](C(=O)N[C@@H](CCN)C(=O)NCCOCCOCC(=O)NCCCCCCCCCCC(=O)O)NC(=O)[C@H]([C@@H](C)O)NC(=O)[C@H](C(C)C)NC(=O)[C@H](CC3CCCCC3)NC(=O)[C@H](CC(N)=O)NC(=O)[C@@H](CC(C)C)NC(=O)[C@H](C)N(C)C(=O)[C@H](Cc3ccc(OCC(=O)O)cc3)NC(=O)[C@H](Cc3ccc(-c4ccccc4)cc3)NC(=O)[C@H](Cc3ccc(OCC(=O)O)cc3)NC2=O)c1` [Example 1362] ({CH2CO}-TY(Carboxymethyl)D[Phe(3-Me)]Y(Carboxymethyl)[Bip]Y(Carboxymethyl)[NMeA][dL]N[Cha]VTC[Dab][AEEA][Aun]-OH; thioether N-14): 25.1 nM; `Cc1cccc(C[C@@H]2NC(=O)[C@H](CC(=O)O)NC(=O)[C@H](Cc3ccc(OCC(=O)O)cc3)NC(=O)[C@H]([C@@H](C)O)NC(=O)CSC[C@@H](C(=O)N[C@@H](CCN)C(=O)NCCOCCOCC(=O)NCCCCCCCCCCC(=O)O)NC(=O)[C@H](CCCN)NC(=O)[C@H](C(C)C)NC(=O)[C@H](CC3CCCCC3)NC(=O)[C@H](CC(N)=O)NC(=O)[C@@H](CC(C)C)NC(=O)[C@H](C)N(C)C(=O)[C@H](Cc3ccc(OCC(=O)O)cc3)NC(=O)[C@H](Cc3ccc(-c4ccccc4)cc3)NC(=O)[C@H](Cc3ccc(OCC(=O)O)cc3)NC2=O)c1` [Example 1363] ({CH2CO}-TY(Carboxymethyl)D[Phe(3-Me)]Y(Carboxymethyl)[Bip]Y(Carboxymethyl)[NMeA][dL]N[Cha]V[Orn]C[Dab][AEEA][Aun]-OH; thioether N-14): 25.3 nM; `Cc1cccc(C[C@@H]2NC(=O)[C@H](CC(=O)O)NC(=O)[C@H](Cc3ccc(OCC(=O)O)cc3)NC(=O)[C@H]([C@@H](C)O)NC(=O)CSC[C@@H](C(=O)N[C@@H](CCN)C(=O)NCCOCCOCC(=O)NCCCCCCCCCCC(=O)O)NC(=O)[C@H](CCC(=O)O)NC(=O)[C@H](C(C)C)NC(=O)[C@H](CC3CCCCC3)NC(=O)[C@H](CC(N)=O)NC(=O)[C@@H](CC(C)C)NC(=O)[C@H](C)N(C)C(=O)[C@H](Cc3ccc(OCC(=O)O)cc3)NC(=O)[C@H](Cc3ccc(-c4ccccc4)cc3)NC(=O)[C@H](Cc3ccc(OCC(=O)O)cc3)NC2=O)c1` [Example 1364] ({CH2CO}-TY(Carboxymethyl)D[Phe(3-Me)]Y(Carboxymethyl)[Bip]Y(Carboxymethyl)[NMeA][dL]N[Cha]VEC[Dab][AEEA][Aun]-OH; thioether N-14): 49.5 nM.
For `Cc1cccc(C[C@@H]2NC(=O)[C@H](CC(=O)O)NC(=O)[C@H](Cc3ccc(OCC(=O)O)cc3)NC(=O)[C@H]([C@@H](C)O)NC(=O)CSC[C@@H](C(=O)N[C@@H](CCCN)C(=O)NCCOCCOCC(=O)NCCCCCCCCCCC(=O)O)NC(=O)[C@H]([C@@H](C)O)NC(=O)[C@H](C(C)C)NC(=O)[C@H](CC3CCCCC3)NC(=O)[C@H](CC(N)=O)NC(=O)[C@@H](CC(C)C)NC(=O)[C@H](C)N(C)C(=O)[C@H](Cc3ccc(OCC(=O)O)cc3)NC(=O)[C@H](Cc3ccc(-c4ccccc4)cc3)NC(=O)[C@H](Cc3ccc(OCC(=O)O)cc3)NC2=O)c1` [Example 1365] ({CH2CO}-TY(Carboxymethyl)D[Phe(3-Me)]Y(Carboxymethyl)[Bip]Y(Carboxymethyl)[NMeA][dL]N[Cha]VTC[Orn][AEEA][Aun]-OH; thioether N-14) the value was 59.7 nM; for `Cc1cccc(C[C@@H]2NC(=O)[C@H](CC(=O)O)NC(=O)[C@H](Cc3ccc(OCC(=O)O)cc3)NC(=O)[C@H]([C@@H](C)O)NC(=O)CSC[C@@H](C(=O)N[C@@H](CCCN)C(=O)NCCOCCOCC(=O)NCCCCCCCCCCC(=O)O)NC(=O)[C@H](CCC(=O)O)NC(=O)[C@H](C(C)C)NC(=O)[C@H](CC3CCCCC3)NC(=O)[C@H](CC(N)=O)NC(=O)[C@@H](CC(C)C)NC(=O)[C@H](C)N(C)C(=O)[C@H](Cc3ccc(OCC(=O)O)cc3)NC(=O)[C@H](Cc3ccc(-c4ccccc4)cc3)NC(=O)[C@H](Cc3ccc(OCC(=O)O)cc3)NC2=O)c1` [Example 1366] ({CH2CO}-TY(Carboxymethyl)D[Phe(3-Me)]Y(Carboxymethyl)[Bip]Y(Carboxymethyl)[NMeA][dL]N[Cha]VEC[Orn][AEEA][Aun]-OH; thioether N-14), 128 nM; for `Cc1cccc(C[C@@H]2NC(=O)[C@H](CC(=O)O)NC(=O)[C@H](Cc3ccc(OCC(=O)O)cc3)NC(=O)[C@H]([C@@H](C)O)NC(=O)CSC[C@@H](C(=O)N[C@@H](CCCN)C(=O)NCCOCCOCC(=O)NCCCCCCCCCCC(=O)O)NC(=O)[C@H](CO)NC(=O)[C@H](C(C)C)NC(=O)[C@H](CC3CCCCC3)NC(=O)[C@H](CC(N)=O)NC(=O)[C@@H](CC(C)C)NC(=O)[C@H](C)N(C)C(=O)[C@H](Cc3ccc(OCC(=O)O)cc3)NC(=O)[C@H](Cc3ccc(-c4ccccc4)cc3)NC(=O)[C@H](Cc3ccc(OCC(=O)O)cc3)NC2=O)c1` [Example 1367] ({CH2CO}-TY(Carboxymethyl)D[Phe(3-Me)]Y(Carboxymethyl)[Bip]Y(Carboxymethyl)[NMeA][dL]N[Cha]VSC[Orn][AEEA][Aun]-OH; thioether N-14), 55.6 nM.
For `Cc1cccc(C[C@@H]2NC(=O)[C@H](CC(=O)O)NC(=O)[C@H](Cc3ccc(OCC(=O)O)cc3)NC(=O)[C@H]([C@@H](C)O)NC(=O)CSC[C@@H](C(=O)N[C@@H](CCN)C(=O)NCCOCCOCC(=O)NCCCCCCCCCCC(=O)O)NC(=O)[C@H](CO)NC(=O)[C@H](C(C)C)NC(=O)[C@H](CC3CCCCC3)NC(=O)[C@H](CCN)NC(=O)[C@@H](CC(C)C)NC(=O)[C@H](C)N(C)C(=O)[C@H](Cc3ccc(OCC(=O)O)cc3)NC(=O)[C@H](Cc3ccc(-c4ccccc4)cc3)NC(=O)[C@H](Cc3ccc(OCC(=O)O)cc3)NC2=O)c1` [Example 1368] ({CH2CO}-TY(Carboxymethyl)D[Phe(3-Me)]Y(Carboxymethyl)[Bip]Y(Carboxymethyl)[NMeA][dL][Dab][Cha]VSC[Dab][AEEA][Aun]-OH; thioether N-14) the value was 18.1 nM.
